The record followed here is patent publication US11021444B2, “Antiviral compounds” (priority 2013, dated 2021).

pEC50, pIC50: −log10 of the molar value. Where two headings read alike, the source gives them in different places. Where only a bound is given, the exact number is not on record here.

The subject of assay [1] is RSV replicon. The experiment in a line: microbe, parasite or virus in culture. The settings on record: read-out: EC50, the concentration of the drug required for reducing RSV replicon RNA by 50%. It is filed as cell-based.
Assay [2] relates to Respiratory Syncytial Virus (RSV) long strain. The assay can be described thus: microbe, parasite or virus in culture. Type of assay: cell-based. The settings on record: Tables A and B list compounds by EC50 band. An outline of the steps:
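HEp-2 cells infected with 100 TCID50 virus per well, compounds in duplicate, 9-point 1/3 dilutions from 100 μM or 1 μM, 1% DMSO. After 5 days at 37 °C, cell viability (CPE protection) read by CCK-8 absorbance at 450 nm, 630 nm background.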

For assay [3], the target named is recombinant RSV complex (Human respiratory syncytial virus A, UniProt P28887). The experiment in a line: RSV Polymerase Inhibition Assay. It is filed as biochemical. An outline of the steps:
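10 nM recombinant RSV polymerase complex in Tris-HCl pH 7.5, 6 mM MgCl2 with RNA oligonucleotide template and radionucleotides, incubated 2 h at 30 °C with increasing inhibitor concentrations. Reaction stopped with EDTA; radiolabeled RNA product counted by scintillation.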

The mark [4] stands for this setting: human respiratory syncytial virus.
Setting [5] is: human respiratory syncytial virus, HEp-2, 120 h, read-out: 50% effective concentration (EC50), HEp-2 cells infected with RSV long strain, 5 days, CCK-8 readout.

recombinant RSV complex, sequence (P28887 whole entry): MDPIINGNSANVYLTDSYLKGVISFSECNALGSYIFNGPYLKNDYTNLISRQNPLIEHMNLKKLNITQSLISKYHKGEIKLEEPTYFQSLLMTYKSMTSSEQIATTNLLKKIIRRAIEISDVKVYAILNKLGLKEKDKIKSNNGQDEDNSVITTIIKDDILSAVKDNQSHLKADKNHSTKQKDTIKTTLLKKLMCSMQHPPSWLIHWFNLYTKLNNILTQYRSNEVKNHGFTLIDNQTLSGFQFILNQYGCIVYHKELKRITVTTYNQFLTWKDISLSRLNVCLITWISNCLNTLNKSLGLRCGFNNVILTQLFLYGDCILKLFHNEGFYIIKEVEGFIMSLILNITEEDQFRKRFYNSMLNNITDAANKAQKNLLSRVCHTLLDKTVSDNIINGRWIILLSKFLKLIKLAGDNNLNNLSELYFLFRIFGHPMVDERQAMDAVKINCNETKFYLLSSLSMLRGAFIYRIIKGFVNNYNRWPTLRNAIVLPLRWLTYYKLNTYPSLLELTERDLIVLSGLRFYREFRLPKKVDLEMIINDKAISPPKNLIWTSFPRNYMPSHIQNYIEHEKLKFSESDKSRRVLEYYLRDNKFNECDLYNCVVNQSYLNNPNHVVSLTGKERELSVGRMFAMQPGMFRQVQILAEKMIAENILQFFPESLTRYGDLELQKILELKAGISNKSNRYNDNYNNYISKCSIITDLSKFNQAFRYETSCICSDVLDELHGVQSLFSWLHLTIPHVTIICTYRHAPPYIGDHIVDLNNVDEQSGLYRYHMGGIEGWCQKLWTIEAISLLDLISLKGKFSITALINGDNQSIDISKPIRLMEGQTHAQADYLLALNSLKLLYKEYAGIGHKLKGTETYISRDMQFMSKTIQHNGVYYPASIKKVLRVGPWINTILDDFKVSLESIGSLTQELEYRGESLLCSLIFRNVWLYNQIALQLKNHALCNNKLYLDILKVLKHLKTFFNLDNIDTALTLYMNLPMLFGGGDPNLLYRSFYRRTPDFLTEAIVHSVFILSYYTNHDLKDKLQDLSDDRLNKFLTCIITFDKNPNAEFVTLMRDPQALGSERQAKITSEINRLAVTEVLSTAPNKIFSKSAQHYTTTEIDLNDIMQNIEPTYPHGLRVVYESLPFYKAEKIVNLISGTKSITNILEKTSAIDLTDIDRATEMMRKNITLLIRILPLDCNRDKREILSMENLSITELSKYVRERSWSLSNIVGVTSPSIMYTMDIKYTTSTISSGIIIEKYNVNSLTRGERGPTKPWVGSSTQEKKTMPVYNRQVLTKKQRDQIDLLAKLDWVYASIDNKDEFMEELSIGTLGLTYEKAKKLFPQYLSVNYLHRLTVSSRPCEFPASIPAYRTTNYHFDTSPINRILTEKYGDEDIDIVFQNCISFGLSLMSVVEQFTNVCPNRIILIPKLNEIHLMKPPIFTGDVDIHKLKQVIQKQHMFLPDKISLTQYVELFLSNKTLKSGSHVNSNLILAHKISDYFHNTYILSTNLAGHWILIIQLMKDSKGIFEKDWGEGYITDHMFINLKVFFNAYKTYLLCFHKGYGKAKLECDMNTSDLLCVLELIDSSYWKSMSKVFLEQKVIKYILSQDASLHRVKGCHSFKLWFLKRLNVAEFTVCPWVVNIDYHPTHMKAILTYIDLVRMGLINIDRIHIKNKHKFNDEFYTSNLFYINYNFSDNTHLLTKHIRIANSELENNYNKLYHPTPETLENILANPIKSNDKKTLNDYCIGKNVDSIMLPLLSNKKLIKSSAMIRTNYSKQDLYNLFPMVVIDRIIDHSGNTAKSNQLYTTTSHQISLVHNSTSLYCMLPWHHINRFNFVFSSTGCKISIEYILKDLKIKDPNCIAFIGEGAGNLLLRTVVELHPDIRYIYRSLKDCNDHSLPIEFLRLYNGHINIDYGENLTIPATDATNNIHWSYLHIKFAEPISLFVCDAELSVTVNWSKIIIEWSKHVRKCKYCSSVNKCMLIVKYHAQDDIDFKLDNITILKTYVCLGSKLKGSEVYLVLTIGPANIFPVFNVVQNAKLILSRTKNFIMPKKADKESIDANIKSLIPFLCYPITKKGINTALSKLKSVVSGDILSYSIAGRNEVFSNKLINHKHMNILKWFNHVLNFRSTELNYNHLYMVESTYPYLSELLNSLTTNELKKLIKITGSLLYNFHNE
recombinant RSV complex, sequence (P03421 whole entry, further chain): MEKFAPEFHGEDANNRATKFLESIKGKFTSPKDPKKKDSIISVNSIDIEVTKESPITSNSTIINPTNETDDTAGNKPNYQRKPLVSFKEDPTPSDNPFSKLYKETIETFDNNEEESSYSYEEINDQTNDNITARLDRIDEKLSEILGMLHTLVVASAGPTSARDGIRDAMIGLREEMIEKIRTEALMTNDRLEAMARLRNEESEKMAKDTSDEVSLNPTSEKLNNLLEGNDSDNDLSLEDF

As to `CC(C)(N)c1cc(-c2ccc(F)c(Cl)c2)nc(C(O)(CNC(=O)c2ccc(OC3CCNC3=O)c(Cl)c2)C(F)(F)F)c1` (stereo not shown) [Compound 281], the pEC50 in assay [1] (setting [4]) and in assay [2] (setting [5]) was > 6.00 each time. Also, in assay [3], the pIC50 is > 6.00.
With `COc1cc(C(=O)NCC(O)(c2cc(C(C)(C)NC(=O)CN)cc(-c3ccc(F)c(Cl)c3)n2)C(F)(F)F)ccc1OC1CC1` (stereo not shown) [Compound 497], the pEC50 in assay [1] (setting [4]) and in assay [2] (setting [5]) was > 6.00 each time. In addition, the pIC50 in assay [3] was > 6.00.
On to `COc1cc(C(=O)NCC(O)(c2cc(C(C)(C)N)cc(-c3ccc(F)c(C(F)(F)F)c3)n2)C(F)(F)F)ccc1OC1CC1` (stereo not shown) [Compound 521], for which the pEC50 in assay [1] (setting [4]) and in assay [2] (setting [5]) was > 6.00 each time. Moreover, the pIC50 in assay [3] was > 6.00.
Regarding `COCCNC(C)(C)c1cc(-c2ccc(F)c(Cl)c2)nc(C(O)(CNC(=O)c2ccc(OC3CC3)c(OC)c2)C(F)(F)F)c1` (stereo not shown) [Compound 505], the pEC50 in assay [1] (setting [4]) and in assay [2] (setting [5]) was > 6.00 in each case. Moreover, in assay [3], the pIC50 is > 6.00.
Consider `COc1cc(C(=O)NCC(O)(c2cc(C(C)(C)N)cc(-c3ccc(F)c(Cl)c3)n2)C(F)(F)F)ccc1OC1CC(F)C1` (stereo not shown) [Compound 323], for which the pEC50 in assay [1] (setting [4]) and in assay [2] (setting [5]) was > 6.00 throughout. The pIC50 in assay [3] was > 6.00.
`COc1cc(C(=O)NCC(O)(Cn2cccn2)c2ccc(OC)c(-c3ccc(F)c(Cl)c3)n2)ccc1OCCO` (stereo not shown) [Compound 184]: the pEC50 is > 6.00 in assay [1] (RSV replicon, 395 HeLa or APC126 cells, value given by membership in Table H / Table I) and > 6.00 in assay [2] (read-out: 50% effective concentration (EC50), HEp-2 cells infected with RSV long strain, 5 days, CCK-8 readout). Besides, in assay [3] (read-out: IC50 (compound concentration at which the enzyme-catalyzed rate was reduced by 50%), 10 nM recombinant RSV complex, 2 h at 30° C., Tables E, F and G list compounds by IC50 band), the pIC50 was > 6.00.
Take `CNC(C)(C)c1cc(-c2ccc(F)c(Cl)c2)nc(C(O)(CNC(=O)c2ccc(OC3CC3)c(OC)c2)C(F)(F)F)c1` (stereo not shown) [Compound 394]: the pEC50 in assay [1] (setting [4]) and in assay [2] (setting [5]) was > 6.00 throughout. Further, the pIC50 in assay [3] was > 6.00.
In the case of `COc1cc(C(=O)NCC(O)(c2cc(C(C)(C)N)cc(-c3ccc(F)c(Cl)c3)n2)C(F)(F)F)ccc1OC1CC1(F)F` (stereo not shown) [Compound 324], the pEC50 in assay [1] (setting [4]) and in assay [2] (setting [5]) was > 6.00 each time. Moreover, in assay [3], the pIC50 is > 6.00.
Take `CC(C)(N)c1cc(-c2ccc(F)c(Cl)c2)nc(C(O)(CNC(=O)c2ccc3c(c2)OCCO3)C(F)(F)F)c1` (stereo not shown) [Compound 273]: the pEC50 in assay [1] (setting [4]) and in assay [2] (setting [5]) was > 6.00 each time. The pIC50 in assay [3] was > 6.00.
As for `COc1cc(C(=O)NC[C@](O)(c2cc3c(c(-c4ccc(C#N)cc4)n2)OC[C@]3(C)N)C(F)(F)F)ccc1OCCO` [Compound 604d], the pEC50 in assay [1] (setting [4]) and in assay [2] (setting [5]) was > 6.00 in each case. Further, in assay [3], the pIC50 was > 6.00.
Take `COc1cc(C(=O)NCC(O)(c2cc(C(C)(C)NCCN)cc(-c3ccc(F)c(Cl)c3)n2)C(F)(F)F)ccc1OC1CC1` (stereo not shown) [Compound 508]: the pEC50 in assay [1] (setting [4]) and in assay [2] (setting [5]) was > 6.00 each time. In assay [3], the pIC50 was > 6.00.
With `COc1cc(C(=O)NCC(O)(c2ccc(OC)c(-c3ccc(F)c(Cl)c3)n2)c2cnn(C)n2)ccc1OCCO` (stereo not shown) [Compound 198], the pEC50 in assay [1] (setting [4]) and in assay [2] (setting [5]) was > 6.00 each time. Moreover, the pIC50 in assay [3] is > 6.00.
As to `COc1cc(C(=O)NCC(O)(c2cc(C(C)(C)N)cc(-c3ccc(F)c(Cl)c3)n2)C(F)(F)F)ccc1OC1CC1` (single isomer, unassigned) [Compound 272], the pEC50 in assay [1] (setting [4]) and in assay [2] (setting [5]) was > 6.00 throughout. In addition, the pIC50 in assay [3] was > 6.00.
As to `COc1cc(C(=O)NCC(O)(c2cc(C(C)(C)N)cc(-c3ccc(Cl)cc3)n2)C(F)(F)F)ccc1OC1CC1` (stereo not shown) [Compound 520], the pEC50 in assay [1] (setting [4]) is > 6.00; in assay [2] (human respiratory syncytial virus, 120 h, read-out: 50% effective concentration (EC50), HEp-2 cells infected with RSV long strain, 5 days, CCK-8 readout), > 6.00. In addition, the pIC50 in assay [3] is > 6.00.
Regarding `COc1cc(C(=O)NCC(F)(c2cc(C(C)(C)N)cc(-c3ccc(F)c(Cl)c3)n2)C(F)(F)F)ccc1OC1CC1` (stereo not shown) [Compound 641], in assay [1] (setting [4]), the pEC50 was > 6.00. In addition, in assay [3], the pIC50 is > 6.00.
As for `COc1cc(C(=O)NCC(O)(c2cc(C3CCNCC3)cc(-c3ccc(F)c(Cl)c3)n2)C(F)(F)F)ccc1OC1CC1` (stereo not shown) [Compound 576], in assay [1] (setting [4]), the pEC50 was > 6.00. Also, the pIC50 in assay [3] was > 6.00.
